The source of these data is ChEMBL document CHEMBL2057063, “Exogenous fluorescent tracer agents based on pegylated pyrazine dyes for real-time point-of-care measurement of glomerular filtration rate” (Bioorg Med Chem, 2012).

Broadly, the clearance is a measure of how efficiently the substance is removed, as volume per time. A word on the Vd: it is a proportionality between amount in the body and measured concentration, not a real space. The low end stands for confinement near the circulation, the high end for extensive tissue distribution.

The nature of series [1]: Plasma protein binding in rat at 20 uM after 1 hr by HPLC analysis. It counts as ADME, cell-free. Conditions: read-out: PPB (converted).
A short description of series [2]: Drug excretion in Sprague-Dawley rat urine administered via tail vein measured after 6 hrs by HPLC analysis. Conditions: iv, read-out: Ae. The series is classed as ADME.
The nature of series [3]: Clearance in Sprague-Dawley rat. The series is classed as ADME, organism-based. Conditions: in vivo.
A further series is filed under the species Rattus norvegicus. Description: Volume of distribution in Sprague-Dawley rat. The series is classed as ADME, organism-based. Conditions: in vivo.
Series [4] is described as follows: Terminal elimination half life in Sprague-Dawley rat plasma. It counts as ADME, cell-free. Conditions: read-out: beta t1/2.
A short description of series [5]: Clearance in Sprague-Dawley rat in presence of 70 mg/kg probenecid administered 10 mins prior to compound treatment. The series is classed as ADME, organism-based. The arrangement: dose 70 mg/kg. Conditions: in vivo, with probenecid 70 mg/kg.
Series [6] in a line: Terminal elimination half life in Sprague-Dawley rat blood. The series is classed as ADME, tissue-based. Conditions: read-out: beta t1/2.

For the compound `COCCOCCOCCOCCOCCOCCOCCOCCOCCOCCOCCOCCOCCOCCOCCOCCOCCOCCOCCOCCOCCOCCOCCOCCNC(=O)c1nc(N)c(C(=O)NCCOCCOCCOCCOCCOCCOCCOCCOCCOCCOCCOCCOCCOCCOCCOCCOCCOCCOCCOCCOCCOCCOCCOCCOC)nc1N`, the fraction unbound at 1 h, 20 µM in series [1] is 0.95. In series [2], the dose excreted at 6 h was 96%. Further, the clearance in series [3] came out at 2.8 mL/min; in series [5], 2.7 mL/min. For the same compound, the Vd in the series listed under Rattus norvegicus came to 64 mL. Moreover, the half-life in series [4] was determined as 25 min.
For the compound `COCCOCCOCCOCCOCCOCCOCCOCCNC(=O)c1nc(N)c(C(=O)NCCOCCOCCOCCOCCOCCOCCOCCOC)nc1N`, the fraction unbound at 1 h, 20 µM in series [1] was 1. The dose excreted at 6 h in series [2] came out at 45%.
In the case of `COCCOCCOCCOCCOCCOCCOCCOCCOCCOCCOCCOCCCNc1nc(C(=O)NCCOCCOCCOCCOCCOCCOCCOCCOCCOCCOCCOCCOCCOCCOCCOCCOCCOCCOCCOCCOCCOCCOCCOCCOC)c(NCCCOCCOCCOCCOCCOCCOCCOCCOCCOCCOCCOCCOC)nc1C(=O)NCCOCCOCCOCCOCCOCCOCCOCCOCCOCCOCCOCCOCCOCCOCCOCCOCCOCCOCCOCCOCCOCCOCCOCCOC`, the fraction unbound at 1 h, 20 µM in series [1] is 0.59. For the same compound, the dose excreted at 6 h in series [2] worked out at 89%. Also, the Vd in the series filed under Rattus norvegicus worked out at 68 mL. Also, the half-life in series [4] is 31 min.
Consider `COCCOCCOCCOCCOCCOCCOCCOCCCNc1nc(C(=O)NCCOCCOCCOCCOCCOCCOCCOCCOCCOCCOCCOCCOC)c(NCCCOCCOCCOCCOCCOCCOCCOCCOC)nc1C(=O)NCCOCCOCCOCCOCCOCCOCCOCCOCCOCCOCCOCCOC`, for which the fraction unbound at 1 h, 20 µM in series [1] was 0.99. Besides, the dose excreted at 6 h in series [2] was found to be 87%.
For the compound `COCCOCCOCCOCCOCCOCCOCCOCCOCCOCCOCCOCCCNc1nc(C(=O)NCCOCCOCCOCCOCCOCCOCCOCCOCCOCCOCCOCCOC)c(NCCCOCCOCCOCCOCCOCCOCCOCCOCCOCCOCCOCCOC)nc1C(=O)NCCOCCOCCOCCOCCOCCOCCOCCOCCOCCOCCOCCOC`, the fraction unbound at 1 h, 20 µM in series [1] is 0.97. In addition, the dose excreted at 6 h in series [2] amounted to 97%. For the same compound, the figures for the half-life in series [6] and in series [4] were 21.6 min and 19 min, respectively. In addition, the clearance in series [3] is 3.1 mL/min; in series [5] it was 3.3 mL/min. Moreover, the Vd in the series filed under Rattus norvegicus came out at 61 mL.
Regarding `COCCOCCOCCOCCCNc1nc(C(=O)NCCOCCOCCOCCOCCOCCOCCOCCOCCOCCOCCOCCOC)c(NCCCOCCOCCOCCOC)nc1C(=O)NCCOCCOCCOCCOCCOCCOCCOCCOCCOCCOCCOCCOC`, the fraction unbound at 1 h, 20 µM in series [1] was 1. For the same compound, in series [2], the dose excreted at 6 h was 86%.
Consider `O=C(NCC(O)CO)c1nc(NC[C@H](O)CO)c(C(=O)NCC(O)CO)nc1NC[C@H](O)CO` (some centres undefined), for which the dose excreted at 6 h in series [2] came out at 88%.
As for `COCCOCCOCCOCCOCCOCCOCCOCCOCCOCCOCCOCCNC(=O)c1nc(N)c(C(=O)NCCOCCOCCOCCOCCOCCOCCOCCOCCOCCOCCOCCOC)nc1N`, in series [1], the fraction unbound at 1 h, 20 µM was 1. For the same compound, in series [2], the dose excreted at 6 h was 71%. In addition, the Vd in the series filed under Rattus norvegicus amounted to 70 mL. In addition, in series [4], the half-life amounted to 20 min.
Take `COCCOCCOCCOCCOCCOCCOCCOCCOCCOCCOCCOCCOCCOCCOCCOCCOCCOCCOCCOCCOCCOCCOCCOCCCNc1nc(C(=O)NCCOCCOCCOCCOCCOCCOCCOCCOCCOCCOCCOCCOCCOCCOCCOCCOCCOCCOCCOCCOCCOCCOCCOCCOC)c(NCCCOCCOCCOCCOCCOCCOCCOCCOCCOCCOCCOCCOCCOCCOCCOCCOCCOCCOCCOCCOCCOCCOCCOCCOC)nc1C(=O)NCCOCCOCCOCCOCCOCCOCCOCCOCCOCCOCCOCCOCCOCCOCCOCCOCCOCCOCCOCCOCCOCCOCCOCCOC`: the fraction unbound at 1 h, 20 µM in series [1] is 0.61. In addition, in series [2], the dose excreted at 6 h was found to be 86%.
In the case of `COCCOCCOCCNc1nc(C(=O)NCCOCCOCCOCCOCCOCCOCCOCCOCCOCCOCCOCCOCCOCCOCCOCCOCCOCCOCCOCCOCCOCCOCCOCCOC)c(NCCOCCOCCOC)nc1C(=O)NCCOCCOCCOCCOCCOCCOCCOCCOCCOCCOCCOCCOCCOCCOCCOCCOCCOCCOCCOCCOCCOCCOCCOCCOC`, in series [1], the fraction unbound at 1 h, 20 µM is 0.89. The dose excreted at 6 h in series [2] is 96%.
For `COCCOCCOCCOCCNC(=O)c1nc(N)c(C(=O)NCCOCCOCCOCCOC)nc1N`, the fraction unbound at 1 h, 20 µM in series [1] is 1. Moreover, the dose excreted at 6 h in series [2] was 41%.
Regarding `COCCOCCOCCOCCOCCOCCOCCOCCCNc1nc(C(=O)NCCOCCOCCOCCOCCOCCOCCOCCOCCOCCOCCOCCOCCOCCOCCOCCOCCOCCOCCOCCOCCOCCOCCOCCOC)c(NCCCOCCOCCOCCOCCOCCOCCOCCOC)nc1C(=O)NCCOCCOCCOCCOCCOCCOCCOCCOCCOCCOCCOCCOCCOCCOCCOCCOCCOCCOCCOCCOCCOCCOCCOCCOC`, the fraction unbound at 1 h, 20 µM in series [1] is 0.7. Also, the dose excreted at 6 h in series [2] amounted to 92%.
The matching figures for `CCCNc1nc(C(=O)NCCOCCOCCOCCOCCOCCOCCOCCOCCOCCOCCOCCOCCOCCOCCOCCOCCOCCOCCOCCOCCOCCOCCOCCOC)c(NCCC)nc1C(=O)NCCOCCOCCOCCOCCOCCOCCOCCOCCOCCOCCOCCOCCOCCOCCOCCOCCOCCOCCOCCOCCOCCOCCOCCOC`: 0.87 and 85%.
For `CNC(=O)c1c(I)c(NC(C)=O)c(I)c(C(=O)[O-])c1I.[Na+]` [IOTHALAMATE SODIUM], the dose excreted at 6 h in series [2] was 80%. Also, the clearance is 2.5 mL/min in series [3] and 2.2 mL/min in series [5]. In addition, in the series filed under Rattus norvegicus, the Vd came to 104 mL.
As to `Nc1nc(C(=O)N[C@H](CO)C(=O)O)c(N)nc1C(=O)N[C@H](CO)C(=O)O` [RELMAPIRAZIN], in series [2], the dose excreted at 6 h came to 90%. Moreover, the Vd in the series listed under Rattus norvegicus came to 83 mL.
